Active and inactive are the calls of the source. No cut-off for these calls is given here.
Key:
Histamine H3 receptor = Histamine H3 receptor (Homo sapiens, UniProt Q9Y5N1); assay: Antagonist activity at human histamine H3 receptor expressed in CHO cells assessed as inhibition of forskolin/R-alpha-methylhistamine-induced cAMP accumulation after 1.5 hrs by TR-FRET immunoassay; assay type: functional, cell-based; conditions: for Kb: read-out: pA2 (converted)
[1] = biological target: Histamine H4 receptor (Homo sapiens) (UniProt Q9H3N8); assay: Agonist activity at human histamine H4 receptor expressed in CHO cells assessed increase of forskolin-induced cAMP accumulation at 1 uM after 1.5 hrs by TR-FRET immunoassay; assay type: functional, cell-based
[2] = biological target: Histamine H4 receptor (Homo sapiens) (UniProt Q9H3N8); assay: Antagonist activity at human histamine H4 receptor expressed in CHO cells assessed inhibition of forskolin/histamine-induced cAMP accumulation at 1 uM after 1.5 hrs by TR-FRET immunoassay; assay type: functional, cell-based
Rattus norvegicus = assay: Increase of histamine release in Wistar rat hypothalamus at 10 uM administered through dialysis membrane by HPLC-fluorometric based microdialysis relative to control; assay type: functional

Sequence of Histamine H4 receptor (Homo sapiens) (Q9H3N8 whole entry): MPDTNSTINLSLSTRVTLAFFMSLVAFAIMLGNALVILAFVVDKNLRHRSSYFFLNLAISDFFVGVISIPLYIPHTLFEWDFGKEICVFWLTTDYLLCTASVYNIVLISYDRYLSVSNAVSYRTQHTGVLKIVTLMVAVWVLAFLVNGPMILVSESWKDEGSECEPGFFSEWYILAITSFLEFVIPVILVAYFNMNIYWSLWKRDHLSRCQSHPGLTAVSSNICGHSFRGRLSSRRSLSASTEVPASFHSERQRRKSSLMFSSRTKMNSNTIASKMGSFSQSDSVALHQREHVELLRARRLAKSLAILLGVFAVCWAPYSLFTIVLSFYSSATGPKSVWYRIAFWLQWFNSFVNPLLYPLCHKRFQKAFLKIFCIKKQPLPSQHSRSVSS
Sequence of Histamine H3 receptor (Q9Y5N1 whole entry): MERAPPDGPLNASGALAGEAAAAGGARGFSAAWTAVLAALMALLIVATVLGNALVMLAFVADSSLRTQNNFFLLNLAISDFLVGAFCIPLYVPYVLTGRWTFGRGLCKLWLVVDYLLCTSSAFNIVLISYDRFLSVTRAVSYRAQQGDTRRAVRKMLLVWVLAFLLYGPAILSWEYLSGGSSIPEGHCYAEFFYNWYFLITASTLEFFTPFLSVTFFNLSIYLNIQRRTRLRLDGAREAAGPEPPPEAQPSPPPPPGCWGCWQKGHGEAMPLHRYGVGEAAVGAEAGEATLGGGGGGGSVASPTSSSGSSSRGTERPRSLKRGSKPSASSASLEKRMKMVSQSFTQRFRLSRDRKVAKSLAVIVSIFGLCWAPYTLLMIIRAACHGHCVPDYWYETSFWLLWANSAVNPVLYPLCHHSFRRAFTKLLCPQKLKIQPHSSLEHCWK

SMILES | IC50 (Histamine H3 receptor) | Kb (Histamine H3 receptor) | Activity [1] | inhibition [2] | Activity (Rattus norvegicus)
N=C(NCCCCc1ccc(C(F)(F)F)cc1)SCCCN1CCCCC1 | 0.0158 µM | 0.0126 µM | – | – | –
N=C(NCc1ccc(Cl)cc1)SCCCN1CCOCC1 | 1.58 µM | – | – | – | –
N=C(NCCc1ccc(Cl)cc1)SCCCN1CCOCC1 | 0.316 µM | – | – | – | –
N=C(NCc1ccc(Cl)cc1)SCCCN1CCCC1 | 0.02 µM | – | – | – | –
Cl.N=C(NCCc1ccc(Cl)cc1)SCCCN1CCCCC1 | 0.00794 µM | 0.0398 µM | inactive | inactive | 145.8%
O=C(CCCCc1ccc(Cl)cc1)NCCCN1CCCCC1 | 0.316 µM | – | – | – | –
Cl.N=C(NCCCc1ccc(Cl)cc1)SCCCN1CCCCC1 | 0.00631 µM | 0.002 µM | inactive | inactive | 102.2%
N=C(NCCCCN1CCCCC1)SCCCN1CCCCC1 | 0.00631 µM | 0.002 µM | inactive | inactive | –
O=C(CCCN1CCCCC1)NCCCCc1ccc(C(F)(F)F)cc1 | 0.126 µM | – | – | – | –
N=C(NCCc1ccc(Cl)cc1)SCCCN1CCCC1 | 0.0316 µM | – | – | – | –
Cl.N=C(NCc1ccc(Cl)cc1)SCCCN1CCCCC1 | 0.0794 µM | 0.0398 µM | – | – | 134.4%
Cl.N=C(NCCCCc1ccc(Cl)cc1)SCCCN1CCCCC1 | 0.00631 µM | 0.000251 µM | inactive | inactive | 101.2%
O=C(CCCN1CCCCC1)NCCCCc1ccc(Cl)cc1 | 0.126 µM | – | – | – | –
Cl.N=C(NCCCCCc1ccccc1)SCCCN1CCCCC1 | 0.0316 µM | 0.01 µM | – | – | 90.5%
N#Cc1ccc(CCCCNC(=N)SCCCN2CCCCC2)cc1 | 0.002 µM | 0.002 µM | inactive | inactive | –
CN1CCN(CCCSC(=N)NCc2ccc(Cl)cc2)CC1 | 1.26 µM | – | – | – | –
N=C(NCc1ccc(Cl)cc1)SCCCc1c[nH]cn1 [CLOBENPROPIT] | – | – | – | – | 145.6%
N=C(NCc1ccc(Cl)cc1)SCCCN1CCNCC1 | 6.31 µM | – | – | – | –
